Key:
[1] = system: carrageenan-induced paw edema; assay: Carrageenan-induced paw edema; type: in vivo, rat
Text: The carrageenan-induced paw edema assay was used as an in vivo indicator of the anti-inflammatory effects of the phyto-percolate. Carrageenan induces local inflammation and edema when injected into the paw pad of a rat (Di Rosa et al., 1971). The development of paw edema is believed to be biphasic (Vinegar et al., 1969). The initial phase is attributable to the local release of histamine and serotonin (Crunkhon et al., 1971) and the second phase is caused by prostaglandin release as a result of COX activation. […] Each treatment group is compared to control.

NF-κB = assay: EMSA of DNA-binding activity of NF-κB in cultured PBMC; type: cell-based, human; conditions: TNF-α (50 ng/ml) added one hour before harvesting
Method: (§1) According to this exemplary embodiment, phyto-percolate and the flow-through/F4 were tested as they appeared in their original concentrations right off the columns, only diluted 1:20 and 1:100 as described herein. The culture of peripheral blood mononuclear cells (“PBMC”) is prepared with two vials of frozen PBMCs that were obtained from normal healthy human subjects by a commercial vendor and were added to 2×10 ml medium and centrifuged. PBMCs were resuspended and cultured in RPMI1640/5% FBS for 24 h. (1 vial of frozen cells in 11 ml medium).
Treatment agents for this exemplary method comprise three agents: unseparated phyto-percolate (‘PAZ’), fraction 3 (‘F3’), fraction 4 (‘F4’). Treatment concentration for each was 1:20 & 1:100. An exemplary sample preparation method for each agent by dilution is as follows: First, a 1:10 dilution is prepared by combining 0.7 ml agent (either PAZ, F3 or F4)+6.3 ml RPMI1640/5% FBS to obtain a total volume of 7 ml of a 1:10 solution. […]
Analysis of the effect of phyto-percolate or fractions isolated therefrom on the DNA-binding activity of NF-κB in the nuclear protein fractions of the cultured PBMC was determined as follows in this exemplary embodiment: approximately 18.26 mL of suspended PBMC were added to approximately 18 mL of culture medium and 2 mL of this cell suspension (2,718,000 cells in 2 mL) were seeded into each 60 mm culture dish. […]

human COX-2 = molecular target: T1, human COX-2 (Homo sapiens, UniProt P35354); assay: in vitro COX-2 inhibition (arachidonic acid to PGE2, EIA); type: biochemical; conditions: read-out: % COX-2 Inhibition (Individual assay values)
T1 construct: host or cells: Sf21 insect cells
T1 sequence (P35354 18-604): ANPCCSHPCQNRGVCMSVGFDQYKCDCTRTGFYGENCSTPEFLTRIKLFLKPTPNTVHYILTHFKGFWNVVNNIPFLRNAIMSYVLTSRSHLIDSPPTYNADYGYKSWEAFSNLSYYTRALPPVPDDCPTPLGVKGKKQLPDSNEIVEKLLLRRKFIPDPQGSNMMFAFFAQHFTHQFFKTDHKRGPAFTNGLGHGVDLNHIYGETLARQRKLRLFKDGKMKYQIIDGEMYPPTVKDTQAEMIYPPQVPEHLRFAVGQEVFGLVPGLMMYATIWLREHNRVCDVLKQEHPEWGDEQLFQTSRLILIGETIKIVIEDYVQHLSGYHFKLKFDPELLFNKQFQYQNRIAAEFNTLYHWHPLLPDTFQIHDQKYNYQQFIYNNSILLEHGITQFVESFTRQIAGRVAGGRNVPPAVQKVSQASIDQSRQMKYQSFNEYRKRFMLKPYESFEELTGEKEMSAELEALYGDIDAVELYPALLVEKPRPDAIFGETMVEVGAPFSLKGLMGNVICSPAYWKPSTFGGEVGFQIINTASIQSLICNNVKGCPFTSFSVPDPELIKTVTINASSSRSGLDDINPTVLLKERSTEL
Method: Three separate preparations of the phyto-percolate were screened, using an in vitro assay, for COX-2 inhibition. Riendeau et al., Can. J. Physiol. […] Briefly, this assay measured to conversion of 0.3 μM arachidonic acid to PGE2 by human recombinant insect Sf21 cells expression human COX-2. The incubation buffer contained 100 mM Tris-HCl (pH 7.7), 1 mM glutathione, 1 μM hematin, and 500 μM phenol. PGE2 was quantified using an enzyme-linked immunoassay (EIA).
Sample 1 was a sample of diluted phyto-percolate concentrated approximately 100-fold by drying under N2. Sample 2 was prepared by drying a 4800 μl sample of diluted phyto-percolate under N2 and reconstituting it in 96 μl of ddH2O just prior to assay. Sample 3 was prepared by lyophilizing a 4800 μl sample of diluted phyto-percolate and reconstituting it in 96 μl of ddH2O just prior to assay. The concentrations of phyto-percolate used, 100×, 10×, and IX, refer to 10 μl, 1 μl, and 0.1 μl of sample, respectively, in a final assay volume of 100 μl. […] Each sample was assayed in at least three concentrations and the assays were performed in duplicate.

IL-2 = assay: ELISA of cytokine secretion by PBMC: IL-2; type: cell-based, human; conditions: PMA added to cultured PBMC (with ionomycin)
Method: as §1
(§2) Treatment agents for this exemplary method comprise three agents: unseparated phyto-percolate (‘PAZ’), fraction 3 (‘F3’), fraction 4 (‘F4’). Treatment concentration for each was 1:20 & 1:100. […]
(§3) According to this exemplary embodiment, seeding, treatment, and detection is accomplished by the following steps. Two dishes of PBMCs were combined and the small amount of PBMCs was stained with 0.4% Trypan blue and the cell number of PBMCs was counted using known techniques.
(§4) In this embodiment, an enzyme linked immunosorbent assay (“ELISA”) analysis of inflammatory cytokine secretion, a protocol provided in a commercial kit for the parallel quantification of the production of human cytokines was employed. […]

TNF-α = assay: ELISA of cytokine secretion by PBMC: TNF-α; type: cell-based, human; conditions: PMA added to cultured PBMC
Method: as §1, §2, §3, §4

IFN-γ = assay: ELISA of cytokine secretion by PBMC: IFN-γ; type: cell-based, human; conditions: PMA added to cultured PBMC
Method: as §1, §2, §3, §4

GM-CSF = assay: ELISA of cytokine secretion by PBMC: GM-CSF; type: cell-based, human; conditions: PMA added to cultured PBMC
Method: as §1, §2, §3, §4

IL-17A = assay: ELISA of cytokine secretion by PBMC: IL-17A; type: cell-based, human; conditions: PMA added to cultured PBMC
Method: as §1, §2, §3, §4

[2] = 0 hours, oral dose 30 min before carrageenan, n=6

| Compound | paw volume, % change from control ([1]; 0 hours) | Mean paw volume ± SD [1, 2] | Mean paw volume ± SD ([1]; 2 hours) | paw volume, % change from control ([1]; 2 hours) | Mean paw volume ± SD ([1]; 4 hours) | paw volume, % change from control ([1]; 4 hours) | Mean paw volume ± SD ([1]; 6 hours) | paw volume, % change from control ([1]; 6 hours) | Mean paw volume ± SD ([1]; 8 hours) | paw volume, % change from control ([1]; 8 hours) | Mean paw volume ± SD ([1]; 20 hours) | paw volume, % change from control ([1]; 20 hours) | also measured |
| --- | --- | --- | --- | --- | --- | --- | --- | --- | --- | --- | --- | --- | --- |
| COc1ccc2c(c1)c(CC(=O)O)c(C)n2C(=O)c1ccc(Cl)cc1 [Indomethacin, indomethacin] | (1%) | 1.25 ± 0.05 mL | 2.25 ± 0.23 mL | (7%) | 2.18 ± 0.22 mL | (1%) | 2.00 ± 0.22 mL | (−12%) | 1.83 ± 0.23 mL | (−22%) | 1.37 ± 0.10 mL | (−38%) | – |
| TNF-α | – | – | – | – | – | – | – | – | – | – | – | – | DNA-binding activity of NF-κB, relative level (control = 1.0) (NF-κB): ~2.0 |
| CS(=O)(=O)c1ccc(C2=C(c3ccccc3)C(=O)OC2)cc1 [rofecoxib] | – | – | – | – | – | – | – | – | – | – | – | – | inhibition at 0.01 µM (human COX-2): 11%; inhibition at 0.03 µM (human COX-2): 16%; inhibition at 0.1 µM (human COX-2): 33%; inhibition at 0.3 µM (human COX-2): 55%; inhibition at 1 µM (human COX-2): 88% |
| CC(=O)Oc1ccccc1C(=O)O [Aspirin, aspirin] | (1%) | 1.25 ± 0.08 mL | 2.22 ± 0.28 mL | (4%) | 2.07 ± 0.23 mL | (−10%) | 1.92 ± 0.18 mL | (−20%) | 1.80 ± 0.18 mL | (−25%) | 1.42 ± 0.16 mL | (−23%) | – |
| CCCCCCCCCCCCCC(=O)O[C@@H]1[C@@H](C)[C@@]2(O)[C@@H](C=C(CO)C[C@]3(O)C(=O)C(C)=C[C@@H]23)[C@@H]2C(C)(C)[C@]12OC(C)=O [PMA, phorbol myristate acetate] | – | – | – | – | – | – | – | – | – | – | – | – | secretion of IL-2 (IL-2): approximately 125 pg/100,000 cells; secretion of TNF-α (TNF-α): approximately 50 pg/100,000 cells; secretion of IFN-γ (IFN-γ): approximately 70 pg/100,000 cells; secretion of GM-CSF (GM-CSF): approximately 50 pg/100,000 cells; secretion of IL-17A (IL-17A): approximately 3 pg/100,000 cells |

Reference: patent publication US10166270B2, “Composition and method for affecting cytokines and NF-κB” (priority 2004, dated 2019)
